What was measured:
[1] = molecular target: T1, CYP2C19 (Homo sapiens, UniProt P33261); assay: Cocktail CYP inhibition assay in human liver microsomes, mephenytoin 4'-hydroxylation; format: in vitro ADME; conditions: human liver microsomes 0.1 mg/mL, 30 μM mephenytoin, 10 min 37° C.; unit inferred
T1 construct: 0.1 mg/mL protein human liver microsomes (BD Gentest); tissue BD Gentest; host or cells: human liver microsomes
Description: (§1) Determination of IC50 in a Cocktail Assay for CYPs 1A2, 2C9, 2C19, 2D6 and 3A4
(§2) This assay was performed in a standard 96-well plate design. IC50 values were calculated from the percent inhibition observed for each test compound at 6 concentrations (for example, 0.0032, 0.016, 0.08, 0.4, 2 and 10 μM). The incubation substrate mix contains 10 μM phenacetin (1A2), 5 μM diclofenac (2C9), 30 μM mephenytoin (2C19), 5 μM dextromethorphan (2D6) and 2 μM midazolam (3A4), 0.1 mg/mL protein human liver microsomes (BD Gentest), 1 mM NAPDH, 3.3 mM MgCl2 and 100 mM potassium phosphate buffer (pH 7.4). The production of the metabolite of each probe substrate was determined after incubation for 10 min at 37° C. Quantitation of the metabolite peak area ratio against an internal standard (tolbutamide) was determined by LC/MS/MS analysis following acetonitrile treatment of the incubations.
(§3) Samples were analyzed in the MRM mode with a SCIEX API-4000 mass spectrometer (Applied Biosystems, Foster City, Calif.), with a Shimadzu LC-20 AD pump (Shimadzu corporation, Kyoto, JP) and a CTC PAL autosampler (Agilent Technologies, Switzerland). A Phenomenex, Luna, 5 μm, 100 A, 2.00×30 mm HPLC column was used for the separation. The mobile phases were: (A) 0.1% formic acid in water and (B) 0.1% formic acid in acetonitrile. The binary gradient was as follows.
(§4) The peak area ratio of the analyte to the internal standard was used to quantify the metabolite. The values of peak area ratios in the presence of test compound were compared to those of maximum or minimum controls and were expressed as % inhibition by interpolating between the maximum and minimum peak area ratios. Incubations with no inhibitor were defined as the maxima.
(§5) The following equation was used to calculate the % inhibition: [1−[(X−Low control)/(High control−Low control)]]*100
(§6) For the IC50 calculation, SigmaPlot was used to plot the mean % inhibition versus the test compound concentrations and for non-linear regression analysis of the data. […]

[2] = molecular target: T2, CYP2D6 (Homo sapiens, UniProt P10635); assay: Cocktail CYP inhibition assay in human liver microsomes, dextromethorphan O-demethylation; format: in vitro ADME; conditions: human liver microsomes 0.1 mg/mL, 5 μM dextromethorphan, 10 min 37° C.; unit inferred
T2 construct: 0.1 mg/mL protein human liver microsomes (BD Gentest); tissue BD Gentest; host or cells: human liver microsomes
Description: as §1, §2, §3, §4, §5, §6

[3] = molecular target: T3, CYP3A4 (Homo sapiens, UniProt P08684); assay: IC50 vs CYP3A by inhibition of lopinavir metabolism in human liver microsomes; format: biochemical; conditions: human liver microsomes 0.01 mg/mL, 1.5 μM lopinavir, 8 min 37° C.; test conc. e.g. 0.098-100 nM; unit inferred; read-out: 3A4(LPV)
T3 construct: 0.01 mg/mL protein human liver microsomes (BD Gentest); tissue BD Gentest; host or cells: human liver microsomes
Description: Determination of IC50 Vs CYP3A by Measurement of Inhibition of Lopinavir Metabolism
This assay was performed in a standard 96-well plate design. IC50 values were calculated from the percent inhibition observed for each test compound at 6 concentrations (for example, 0.098, 0.391, 1.56, 6.25, 25 and 100 nM). The incubation substrate mix contains 1.5 μM lopinavir, 0.01 mg/mL protein human liver microsomes (BD Gentest), 1 mM NAPDH, 3.3 mM MgCl2 and 100 mM potassium phosphate buffer (pH 7.4). The production of the sum of three hydroxylated metabolites (M2: 6-hydroxy lopinavir, M3: 4-hydroxy lopinavir, M4: 4-hydroxy lopinavir (epimer of M3), Kumar et al., 1999) was determined after incubation for 8 min at 37° C. Quantitation of the metabolite peak area ratio against an internal standard (tolbutamide) was determined by LC/MS/MS analysis following acetonitrile treatment of the incubations.
as §3
as §4, with “maxima and with 5 μM ketoconazole were defined as the minima.” for “maxima.”
as §5
For the IC50 calculation, SigmaPlot was used to plot the mean % inhibition versus the test compound concentrations and for non-linear regression analysis of the data. Depending on the range of data points defining the inhibition curve, the data may have been fit to the 4-parameter logistic equation.

[4] = molecular target: T4, human CYP11B1 (Homo sapiens, UniProt P15538); assay: IC50 vs CYP11B1 by cortisol synthesis in V79 cells (HTRF); format: cell-based; conditions: V79 cells expressing human CYP11B1, 1500 nM RSS, test conc. 0.5-10000 nM, unit inferred
T4 construct: expressed in transfected cells
T4 sequence (P15538 25-503): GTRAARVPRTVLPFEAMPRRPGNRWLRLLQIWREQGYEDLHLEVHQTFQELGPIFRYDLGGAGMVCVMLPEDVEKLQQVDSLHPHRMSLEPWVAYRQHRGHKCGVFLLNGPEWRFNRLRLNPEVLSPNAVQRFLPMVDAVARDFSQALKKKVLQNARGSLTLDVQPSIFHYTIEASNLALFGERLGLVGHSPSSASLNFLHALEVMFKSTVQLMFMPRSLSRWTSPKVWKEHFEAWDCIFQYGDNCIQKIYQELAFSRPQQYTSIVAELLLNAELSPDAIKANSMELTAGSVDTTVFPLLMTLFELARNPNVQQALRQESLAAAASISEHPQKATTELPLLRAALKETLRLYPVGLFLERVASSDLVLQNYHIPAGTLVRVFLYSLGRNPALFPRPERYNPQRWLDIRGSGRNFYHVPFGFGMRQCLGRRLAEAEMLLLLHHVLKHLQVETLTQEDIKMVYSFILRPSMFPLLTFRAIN
Description: Determination of IC50 Vs CYP11B1/CYP11B2 by Measurement of Cortisol/Aldosterone Synthesis
This assay was performed in a standard 384-well plate design using cultured V79 cells stably expressing human CYP11B1 or human CYP11B2. Test compounds at 10 concentrations (for example, 10000, 3333.3, 1111.1, 370.4, 123.5, 41.2, 13.7, 4.6, 1.5 and 0.5 nM) were added in 384-well plate after the cell-seeding procedure. The incubation substrate contains 1500 nM RSS for CYP11B1 assay/750 nM DOC for CYP11B2 assay. The Cortisol/Aldosterone production of cell culture supernatant was determined by Cortisol/Aldosterone HTRF kit after for about 15 hours incubation at RT (protect from light). IC50 values were calculated from the percent inhibition observed for each test compound at 10 concentrations.
The assay plate was read using Envision (Perkin Elmer, Waltham, Mass.) at 665 nm and 590 nm (using Filter Barcode of 217#, 205#; Mirror Barcode of 446#).
Data are analyzed using Assay Data Analyzer. All ratio data (665 nm/590 nm) are back calculated according to the standard curve, resulting in Cortisol/Aldosterone concentrations. IC50 values are reported as the Inflection Point (IP) of a four parameter fit of the titration data.
The following equation was used to calculate the % inhibition: % Activity=100×{1−(Sample_back calculated Cortisol/Aldosterone concentration−LC_back calculated Cortisol/Aldosterone concentration)/(HC_back calculated Cortisol/Aldosterone concentration−LC_back calculated Cortisol/Aldosterone concentration)} Curve Fitting: Four Parameter Logistic: […]

T3 sequence (P08684 2-503): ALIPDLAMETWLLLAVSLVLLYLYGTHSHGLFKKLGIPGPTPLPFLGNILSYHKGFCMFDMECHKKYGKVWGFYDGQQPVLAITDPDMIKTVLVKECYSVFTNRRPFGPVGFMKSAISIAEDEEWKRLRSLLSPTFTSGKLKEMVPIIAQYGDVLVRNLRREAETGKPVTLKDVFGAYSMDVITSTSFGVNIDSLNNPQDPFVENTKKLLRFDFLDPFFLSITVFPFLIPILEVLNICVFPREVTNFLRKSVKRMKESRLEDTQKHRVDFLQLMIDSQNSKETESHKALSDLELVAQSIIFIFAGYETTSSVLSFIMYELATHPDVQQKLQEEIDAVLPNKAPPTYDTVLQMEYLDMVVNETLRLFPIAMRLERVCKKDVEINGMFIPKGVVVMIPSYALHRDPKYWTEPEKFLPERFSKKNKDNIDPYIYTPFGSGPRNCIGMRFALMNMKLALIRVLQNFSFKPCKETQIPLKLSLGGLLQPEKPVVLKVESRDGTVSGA
T1 sequence (P33261 whole entry): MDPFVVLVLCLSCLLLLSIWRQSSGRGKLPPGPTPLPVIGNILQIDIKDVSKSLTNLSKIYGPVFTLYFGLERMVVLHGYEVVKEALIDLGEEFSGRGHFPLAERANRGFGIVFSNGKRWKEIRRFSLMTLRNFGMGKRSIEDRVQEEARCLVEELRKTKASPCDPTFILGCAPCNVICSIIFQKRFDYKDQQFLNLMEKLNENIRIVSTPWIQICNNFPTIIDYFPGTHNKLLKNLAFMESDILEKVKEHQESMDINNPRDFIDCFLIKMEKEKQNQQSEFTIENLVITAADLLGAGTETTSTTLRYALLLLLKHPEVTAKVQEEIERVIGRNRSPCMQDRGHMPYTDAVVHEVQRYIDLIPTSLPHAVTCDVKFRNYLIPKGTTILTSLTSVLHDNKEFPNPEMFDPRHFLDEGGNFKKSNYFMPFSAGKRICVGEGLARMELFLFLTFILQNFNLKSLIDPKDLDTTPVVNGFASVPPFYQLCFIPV
T2 sequence (P10635 whole entry): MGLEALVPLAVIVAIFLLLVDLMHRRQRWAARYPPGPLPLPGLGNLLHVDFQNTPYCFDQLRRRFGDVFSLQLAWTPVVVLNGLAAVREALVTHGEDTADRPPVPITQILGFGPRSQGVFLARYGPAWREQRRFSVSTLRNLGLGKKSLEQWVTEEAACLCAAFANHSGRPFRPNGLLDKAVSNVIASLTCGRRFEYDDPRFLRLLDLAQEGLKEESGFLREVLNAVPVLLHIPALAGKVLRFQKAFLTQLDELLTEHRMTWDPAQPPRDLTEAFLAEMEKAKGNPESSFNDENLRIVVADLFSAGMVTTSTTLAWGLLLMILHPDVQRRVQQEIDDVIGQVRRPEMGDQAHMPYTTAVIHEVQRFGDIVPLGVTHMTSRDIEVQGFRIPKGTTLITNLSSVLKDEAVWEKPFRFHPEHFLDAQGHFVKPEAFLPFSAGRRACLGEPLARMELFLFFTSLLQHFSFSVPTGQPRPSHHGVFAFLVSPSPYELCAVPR

SMILES | IC50 [1] | IC50 [2] | IC50 [3] | IC50 [4]
COCCC(c1cncn1[C@H](C)c1ccc(F)cc1)N1CCN(S(=O)(=O)c2cnc(N3CCN(C)CC3)s2)CC1 (single isomer, unassigned) [Compound 36] | > 10000 nM | 4080 nM | 4.3 nM | 1350 nM
COCC(c1cncn1[C@H](C)c1ccc(F)cc1)N1CCN(S(=O)(=O)c2cnc(N3CCN(C)CC3)s2)CC1 (single isomer, unassigned) [Compound 35] | > 10000 nM | 8890 nM | 3.8 nM | 2180 nM
C[C@H](c1ccc(F)cc1)n1cncc1C1CCCC2CN(S(=O)(=O)c3cnc(Nc4ccccn4)s3)CCN21 (single isomer, unassigned) [Compound 38] | 4180 nM | 7130 nM | 2.5 nM | 2140 nM

Reference: patent US9556202B2, “Sulfonamide derivatives and methods of use thereof for improving the pharmacokinetics of a drug” (MERCK SHARP & DOHME CORP., priority 2012, dated 2017)
